Assay results from patent publication US12528816B2, “Substituted imidazo [1,2-b] pyridazines and [1, 2, 4] triazolo [ 4,3-b] pyridazines as camkii inhibitors” (Cardurion Pharmaceuticals, INC., priority 2020, dated 2026).

target: T1, human CaMKIIδ (Homo sapiens, UniProt Q13557); assay: Evaluation of in vitro CaMKII inhibitory activity (binding assay, TR-FRET); conditions: human CaMKIIδ, TR-FRET binding assay; class symbols A/B/C; read-out: Act (CaMKII inhibitory activity, binding assay)
T1 construct: Full-length, glutathione-S-transferase(GST)-tagged, human CaMKIIδ was purchased from Carna Biosciences; purchased Carna Biosciences (CaMKIIδ); Wako Pure Chemical Industries (calmodulin) 02-111
In short: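 Inhibitors, in eight concentrations of 4-fold dilution, were incubated 1 h at room temperature with a protein–fluorescent probe premix preformed 30 min on ice, containing calmodulin and terbium anti-GST antibody. Displacement read by TR-FRET in duplicate; IC50 by logistic fitting.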

SMILES | IC50 [µM]
C[C@@H](Cn1cnnn1)Oc1cncc(-c2ccc3ncc(-c4nccc(C(F)F)c4C#N)n3n2)n1 [compound 471] | > 0.1

same assay, conditions: in vitro CaMKII inhibitory activity (binding assay), human CaMKIIδ; read-out: Act

SMILES | IC50 [µM]
CC(O)c1ccc(C#N)c(-c2cnc3ccc(-c4cccc(O[C@@H](C)Cn5cnnn5)c4)nn23)n1 (some centres unmarked) [compound 390] | < 0.01
C[C@@H](Cn1cnnn1)Oc1cccc(-c2ccc3nnc(-c4ncccc4C#N)n3n2)c1 [compound 391] | > 0.1
C[C@@H](Cn1cnnn1)Oc1cccc(-c2ccc3ncc(-c4ncnc(N)c4C#N)n3n2)c1 [compound 394] | 0.01 to 0.1
C[C@@H](Cn1cnnn1)Oc1cccc(-c2ccc3ncn(-c4cccc(C(F)F)c4C#N)c3n2)c1 [compound 395] | < 0.01
COc1cc(F)cc(-n2cnc3ccc(-c4cncc(O[C@@H](C)Cn5cnnn5)n4)nc32)c1C#N [compound 396] | < 0.01
C[C@@H](Cn1cnnn1)Oc1cccc(-c2ccc3ncn(-c4cccc(C(F)F)c4C#N)c3n2)n1 [compound 397] | > 0.1
C[C@@H](Cn1cnnn1)Oc1cccc(-c2ccc3ncn(-c4cccc(OC(F)F)c4C#N)c3n2)n1 [compound 398] | 0.01 to 0.1
COc1nccc(-c2cnc3ccc(-c4cccc(O[C@@H](C)Cn5cnnn5)c4)nn23)c1C#N [compound 400] | < 0.01
C[C@@H](Cn1cnnn1)Oc1cccc(-c2ccc3ncc(-c4nccc(C(F)F)c4C#N)n3n2)c1 [compound 401] | < 0.01
COc1ncnc(-c2cnc3ccc(-c4ccc(F)c(O[C@@H](C)Cn5cnnn5)c4)nn23)c1C#N [compound 402] | < 0.01
COc1nccc(-c2cnc3ccc(-c4cccc(O[C@@H](C)Cn5cnnn5)n4)nn23)c1C#N [compound 403] | < 0.01
COc1cccc(-c2cnc3ccc(-c4cccc(O[C@@H](C)Cn5cnnn5)n4)nn23)c1C#N [compound 404, 2-methoxy-6-[6-(6-{[(2S)-1-(1H-tetrazol-1-yl)propan-2-yl]oxy}pyridin-2-yl)imidazo[1,2-b]pyridazin-3-yl]benzonitrile] | < 0.01
C[C@@H](Cn1cnnn1)Oc1cccc(-c2ccc3ncn(-c4cc(F)cc(OC(F)F)c4C#N)c3n2)n1 [compound 405] | < 0.01
C[C@@H](Cn1cnnn1)Oc1cncc(-c2ccc3ncn(-c4cc(F)cc(OC(F)F)c4C#N)c3n2)n1 [compound 406] | 0.01 to 0.1
C[C@@H](Cn1cnnn1)Oc1cccc(-c2ccc3ncn(-c4cc(F)cc(C(F)F)c4C#N)c3n2)n1 [compound 407] | 0.01 to 0.1
COc1cc(F)c(C#N)c(-c2cnc3ccc(-c4cccc(O[C@@H](C)Cn5cnnn5)n4)nn23)c1 [compound 408] | < 0.01
COc1cc(F)cc(-n2cnc3ccc(-c4cc(O[C@@H](C)Cn5cnnn5)ccn4)nc32)c1C#N [compound 411] | < 0.01
COc1ccnc(-c2cnc3ccc(-c4cccc(O[C@@H](C)Cn5cnnn5)n4)nn23)c1C#N [compound 414] | 0.01 to 0.1
C[C@@H](Cn1cnnn1)Oc1cccc(-c2ccc3ncc(-c4cnccc4C#N)n3n2)n1 [compound 415] | < 0.01
C[C@@H](Cn1cnnn1)Oc1cccc(-c2ccc3ncc(-c4ccc(F)cc4C#N)n3n2)n1 [compound 418] | 0.01 to 0.1
C[C@@H](Cn1cnnn1)Oc1cccc(-c2ccc3ncc(-c4cccc(F)c4C#N)n3n2)n1 [compound 419] | < 0.01
COc1ccc(C#N)c(-c2cnc3ccc(-c4cccc(O[C@@H](C)Cn5cnnn5)n4)nn23)c1 [compound 420] | < 0.01

SMILES | IC50 [µM]
C[C@@H](Cn1cnnn1)Oc1cccc(-c2ccc3ncc(-c4cc(F)cc(F)c4C#N)n3n2)n1 [compound 421] | < 0.01
C[C@@H](Cn1cnnn1)Oc1cccc(-c2ccc3ncc(-c4c(C#N)ccc(F)c4F)n3n2)n1 [compound 422] | < 0.01
C[C@@H](Cn1cnnn1)Oc1cccc(-c2ccc3ncc(-c4c(F)ccc(F)c4C#N)n3n2)n1 [compound 423] | < 0.01
COc1cc(F)c(C#N)c(-n2cnc3ccc(-c4cccc(O[C@@H](C)Cn5cnnn5)n4)nc32)c1 [compound 424] | < 0.01
C[C@@H](Cn1cnnn1)Oc1cccc(-c2ccc3ncc(-c4ccccc4C#N)n3n2)n1 [compound 425, 2-[6-(6-{[(2S)-1-(1H-tetrazol-1-yl)propan-2-yl]oxy}pyridin-2-yl)imidazo[1,2-b]pyridazin-3-yl]benzonitrile] | < 0.01
COc1cccc(-c2cnc3ccc(-c4cncc(O[C@@H](C)Cn5cnnn5)n4)nn23)c1C#N [compound 428, 2-methoxy-6-[6-(6-{[(2S)-1-(1H-tetrazol-1-yl)propan-2-yl]oxy}pyrazin-2-yl)imidazo[1,2-b]pyridazin-3-yl]benzonitrile] | < 0.01
COc1ccnc(-c2cnc3ccc(-c4cncc(O[C@@H](C)Cn5cnnn5)n4)nn23)c1C#N [compound 429] | > 0.1
COc1ccnc(-c2cnn3ccc(-c4cccc(O[C@@H](C)Cn5cnnn5)n4)nc23)c1C#N [compound 430] | > 0.1
C[C@@H](Cn1cnnn1)Oc1cc(-c2ccc3ncc(-c4[nH]ccc(=O)c4C#N)n3n2)ccc1F [compound 431, 2-[6-(4-fluoro-3-{[(2S)-1-(1H-tetrazol-1-yl)propan-2-yl]oxy}phenyl)imidazo[1,2-b]pyridazin-3-yl]-4-oxo-1,4-dihydropyridine-3-carbonitrile] | > 0.1
COc1cccc(-c2cnc3ccc(-c4ccc(F)c(O[C@@H](C)Cn5cnnn5)c4)nn23)n1 [compound 432] | < 0.01
C[C@@H](Cn1cnnn1)Oc1cccc(-c2ccc3ncc(-c4cc(F)c(F)cc4C#N)n3n2)n1 [compound 433] | < 0.01
C[C@@H](Cn1cnnn1)Oc1cccc(-c2ccc3ncc(-c4cc(F)cnc4C#N)n3n2)c1 [compound 434] | < 0.01
C[C@@H](Cn1cnnn1)Oc1cc(-c2ccc3ncc(-c4c(C#N)c(=O)ccn4CF)n3n2)ccc1F [compound 436] | 0.01 to 0.1
COc1ccnc(-c2cnn3ccc(-c4ccc(F)c(O[C@@H](C)Cn5cnnn5)c4)nc23)c1C#N [compound 437] | < 0.01
COc1cc(F)cc(-c2cnc3ccc(-c4cc(O[C@@H](C)Cn5cnnn5)ccn4)nn23)c1C#N [compound 438] | < 0.01
COc1cc(F)cc(-n2cnc3ccc(-c4ccc(F)c(O[C@@H](C)Cn5cnnn5)n4)nc32)c1C#N [compound 439] | < 0.01
COc1cc(OC)c(C#N)c(-n2cnc3ccc(-c4cccc(O[C@@H](C)Cn5cnnn5)n4)nc32)c1 [compound 440] | 0.01 to 0.1
C[C@@H](Cn1cnnn1)Oc1cncc(-c2ccc3ncc(-c4cc(Cl)ccc4C#N)n3n2)n1 [compound 441] | < 0.01
C[C@@H](Cn1cnnn1)Oc1cccc(-c2ccc3ncn(-c4cc(Cl)ccc4C#N)c3n2)n1 [compound 442] | < 0.01
COc1cc(F)cc(-c2cnc3ccc(-c4cncc(O[C@@H](C)Cn5cncn5)n4)nn23)c1C#N [compound 443] | < 0.01
COc1ccnc(-c2cnc3ccc(-c4ccc(F)c(O[C@@H](C)Cn5ncnn5)c4)nn23)c1C#N [compound 444] | < 0.01
C[C@@H](Cn1cnnn1)Oc1cncc(-c2ccc3ncn(-c4cc(Cl)ccc4C#N)c3n2)n1 [compound 445] | 0.01 to 0.1

SMILES | IC50 [µM]
C[C@@H](Cn1cnnn1)Oc1cncc(-c2ccc3ncn(-c4cccc(Cl)c4C#N)c3n2)n1 [compound 446] | > 0.1
C[C@@H](Cn1cnnn1)Oc1nc(-c2ccc3ncc(-c4cc(F)ccc4C#N)n3n2)ccc1F [compound 449] | < 0.01
C[C@@H](Cn1cnnn1)Oc1cccc(-c2ccc3ncc(-c4ncc(F)cc4C#N)n3n2)c1 [compound 450] | < 0.01
C[C@@H](Cn1cnnn1)Oc1cccc(-c2ccc3ncc(-c4nc(F)c(F)cc4C#N)n3n2)c1 [compound 451] | < 0.01
C[C@@H](Cn1cnnn1)Oc1cccc(-c2ccc3ncn(-c4cccc(Cl)c4C#N)c3n2)n1 [compound 453] | 0.01 to 0.1
COc1cc(Cl)cc(-n2cnc3ccc(-c4cccc(O[C@@H](C)Cn5cnnn5)n4)nc32)c1C#N [compound 454] | < 0.01
COc1cc(Cl)cc(-c2cnc3ccc(-c4cncc(O[C@@H](C)Cn5cnnn5)n4)nn23)c1C#N [compound 455] | < 0.01
COc1cc(OC)c(C#N)c(-c2cnc3ccc(-c4cccc(O[C@@H](C)Cn5cnnn5)n4)nn23)c1 [compound 456] | < 0.01
C[C@@H](Cn1cnnn1)Oc1cccc(-c2ccc3ncc(-c4nccc(C(F)F)c4C#N)n3n2)n1 [compound 457] | 0.01 to 0.1
C[C@@H](Cn1cnnn1)Oc1cccc(-c2ccc3ncc(-c4ncccc4C#N)n3n2)n1 [compound 458] | > 0.1
COc1ncnc(-c2cnc3ccc(-c4cccc(O[C@@H](C)Cn5cnnn5)n4)nn23)c1C#N [compound 459] | > 0.1
C[C@@H](Cn1cnnn1)Oc1cccc(-c2ccc3ncc(-c4ccc(F)c(F)c4C#N)n3n2)n1 [compound 460] | 0.01 to 0.1
C[C@@H](Cn1cnnn1)Oc1cccc(-c2ccc3ncc(-c4c(F)cccc4C#N)n3n2)n1 [compound 461] | 0.01 to 0.1
COCc1cc(F)cc(-c2cnc3ccc(-c4cccc(O[C@@H](C)Cn5cnnn5)n4)nn23)c1C#N [compound 462] | < 0.01
COc1cc(-c2cnc3ccc(-c4cccc(O[C@@H](C)Cn5cnnn5)n4)nn23)c(C#N)cn1 [compound 463] | < 0.01
C[C@@H](Cn1cnnn1)Oc1cccc(-c2ccc3ncc(-c4cc(=O)[nH]cc4C#N)n3n2)n1 [compound 464] | < 0.01
C[C@@H](Cn1cnnn1)Oc1cccc(-c2ccc3ncc(-c4cc(=O)n(C)cc4C#N)n3n2)n1 [compound 465] | < 0.01
C[C@@H](Cn1cnnn1)Oc1cccc(-c2ccc3ncc(-c4ccc(C#N)c(F)n4)n3n2)c1 [compound 468] | < 0.01
COCCOc1ccnc(-c2cnc3ccc(-c4cccc(O[C@@H](C)Cn5cnnn5)c4)nn23)c1C#N [compound 469] | < 0.01
COc1cncc(-c2cnc3ccc(-c4ccc(F)c(O[C@@H](C)Cn5cnnn5)c4)nn23)c1C#N [compound 470] | < 0.01
